Laboratory results reported in patent publication US9925166B2, “Methods of treating an overweight or obese subject” (Zafgen, Inc., priority 2008, dated 2018).
Several values for one entry are separate records, joined by “and”; a condition that tells them apart may be missing. Equal values may be shown once. Read-outs that look alike come from different tables or passages of the source.

Experiments:
[1] = tested on: diet-induced obese mice; assay: Weight loss study in diet-induced obese mice, oral gavage 28 days (Example 2); assay type: in vivo, C57BL/6NTac mice; settings: for weight loss as a percentage of pre-study weight: 28 days, end of study
Description: The mice in this study were not genetically obese, but prior to and during the study, obesity was induced by a high-fat diet. Twelve week-old C57BL/6NTac mice, maintained on a 60% fat diet prior to and during the study, were separated into six groups, eight animals per group.
Fumagillin was administered to four of the diet-induced obese mice groups by oral gavage as a solution in 10% DMSO, at doses of 1 mg/kg/day, 3 mg/kg/day, 10 mg/kg/day and 30 mg/kg/day respectively, for 28 days. A fifth group received 10% DMSO vehicle-only (control) by oral gavage, and the sixth group received neither vehicle nor fumagillin (naïve). Body weight was measured on day 0 (pre-study) and subsequently on day 3, day 8, day 15, day 22, and day 29 of the study. Daily food consumption was also recorded.

[2] = tested on: blood cells; assay: Complete blood analysis (CBC) after oral fumagillin in lean rats (Example 9); assay type: in vivo, Sprague-Dawley rats; settings: for lymphocyte count / neutrophil count / white blood cell count: 3 mg/kg oral gavage on day 3 and day 9
Description: Male lean Sprague-Dawley rats were divided into two groups, ten rats per group. One group of rats received fumagillin by oral gavage as a solution in 10% DMSO, at dose of 3 mg/kg. Administration of fumagillin to this group of rats was performed on day 3 and day 9 of the study. The other group of rats was administered by oral gavage a solution of 10% DMSO/90% water (vehicle-only). Administration of vehicle to this group of rats was performed on day 3 and day 9 of the study. Blood samples were collected daily for complete blood analysis (CBC).

[3] = Plasma concentration after intraduodenal administration (Example 8); assay type: in vivo, Sprague-Dawley rats; settings: 30 mg/kg intraduodenal; for ZGN-201 Conc. in Rat Plasma, individual animals: listed as ZGN-201
Description: A study was undertaken to investigate absorption of fumagillin from the small intestine. Five male Sprague-Dawley rats were fasted, and were then catheterized into the duodenum, 1.5 centimeters below the stomach. The stomachs of these rats were tied off so administration would bypass the stomach of each rat. Rats were then infused with 30 mg/kg of fumagillin and an equal volume of Trypan blue (Invitrogen). To determine absorption of fumagillin into the small intestine, blood was collected from the jugular vein of each rat at time points of 0 min., 5 min. (graphically illustrated as 0.083), 15 min. (graphically illustrated as 0.25), 30 min. (graphically illustrated as 0.5), 2 hrs, and 8 hrs.

[4] = tested on: leptin; assay: Plasma marker leptin in diet-induced obese mice (Example 10); assay type: in vivo, C57BL/6 mice; settings: 1 mg/kg/day oral gavage, end of study vs prior, FIG. 15
Description: Mice were divided into four groups, a diet-induced obese group administered fumagillin at 1 mg/kg/day (oral gavage as a solution in 0.25% DMSO), a Pair-fed group, a caloric restriction group, and a diet-induced obese group. For the diet-induced obese groups, C57BL/6 mice were maintained prior to and during the study on a diet containing 42% fat on a kilocalorie basis. Plasma markers were measured prior to and at the end of the study.

[5] = tested on: diet-induced obese mice; assay: Percent fat change and lean mass change by NMR in diet-induced obese mice, 28 days (Example 6); assay type: in vivo, C57BL6J mice
Description: Mice were first divided into three groups, a control group, a diet-induced obese group, and a lean group. For the diet-induced obese group, C57BL6J mice maintained prior to and during the study on a diet containing 40% fat on a kilocalorie basis were further divided into two groups. For the lean group, C57BL6J mice were maintained on a diet containing 4% by weight fat prior to and during the study. Each of the groups was subsequently divided as described below.
The lean group was administered 1% DMSO vehicle for 28 days. Percent fat change and percent lean mass change from baseline were determined by NMR after 28 days.

Structure (SMILES): CO[C@@H]1[C@H](OC(=O)/C=C/C=C/C=C/C=C/C(=O)O)CC[C@]2(CO2)[C@H]1[C@@]1(C)O[C@@H]1CC=C(C)C [fumagillin]
- neutrophil counts compared to vehicle-only mice ([1]; 1 mg/kg and 3 mg/kg oral): decreased
- weight loss as a percentage of pre-study weight ([1]; 1 mg/kg/day oral gavage): 15%
- weight loss as a percentage of pre-study weight ([1]; 3 mg/kg/day oral gavage): 18%
- neutrophil counts compared to vehicle-only mice ([1]; 10 mg/kg and 30 mg/kg oral): increased
- weight loss as a percentage of pre-study weight ([1]; 10 mg/kg/day oral gavage): 21%
- weight loss as a percentage of pre-study weight ([1]; 30 mg/kg/day oral gavage): 33%
- food consumption among dose groups ([1]; 30 mg/kg/day oral, 30 day period): consuming the least amount of food
- food consumption vs vehicle-only and naive mice ([1]; 1-30 mg/kg/day oral, 30 day period): consumed less food
- leukocytes, particularly lymphocytes (hematology) ([1]; fumagillin dose groups, oral): decrease
- platelets ([1]; fumagillin dose groups, oral): No decrease
- cholesterol levels ([1]; fumagillin treatment, oral): reductions
- serum glucose levels ([1]; fumagillin treatment, oral): reductions
- non-effective dose ([1]; oral gavage, weight loss, not identified, concluded): below 1 mg/kg/day
- lymphocyte count ([2]; day 3): approximately 4000 lymphocytes/4
- neutrophil count ([2]; day 3): approximately 650 neutrophils/4
- white blood cell count ([2]; day 3): approximately 5000 white blood cells/4
- lymphocyte count ([2]; day 9): approximately 3900 lymphocytes/4
- neutrophil count ([2]; day 9): approximately 1100 neutrophils/4
- white blood cell count ([2]; day 9): approximately 5200 white blood cells/4
- development of a blood disorder ([2]; 3 mg/kg oral gavage, rats): do not result in development of a blood disorder
- variation vs vehicle-only rats in white blood cell, lymphocyte and neutrophil count ([2]; 3 mg/kg oral gavage, statistical analysis): not statistically significant
- ZGN-201 Conc. in Rat Plasma, individual animals ([3]; male rats 1, 3, 4, 5, time point 0 hr): BQL (BQL: 1 ng/mL)
- ZGN-201 Conc. in Rat Plasma, individual animals ([3]; male rats 1, 3, 4, 5, time point 0.083 hr): 30286.5 ng/mL and 30532.1 ng/mL and 31057 ng/mL
- ZGN-201 Conc. in Rat Plasma, individual animals ([3]; male rats 1, 3, 4, 5, time point 0.25 hr): 9275.7 ng/mL and 9903.7 ng/mL and 13584.2 ng/mL
- ZGN-201 Conc. in Rat Plasma, individual animals ([3]; male rats 1, 3, 4, 5, time point 0.5 hr): 1104.6 ng/mL and 2295 ng/mL and 1109.8 ng/mL and 1225.1 ng/mL
- ZGN-201 Conc. in Rat Plasma, individual animals ([3]; male rats 1, 3, 4, 5, time point 2 hr): 95 ng/mL and 66.5 ng/mL and 79.3 ng/mL and 27.5 ng/mL
- ZGN-201 Conc. in Rat Plasma, individual animals ([3]; male rats 1, 3, 4, 5, time point 8 hr): 9 ng/mL and 6.9 ng/mL and 6.8 ng/mL
- absorption profile compared to absorption through the stomach ([3]; rats): large absorption profile in the small intestine
- concentration at 0 hr ([3]; male, Sprague-Dawley, rat, plasma, other: intraduodenal, 30 mg/kg, male rats 1, 3, 4, 5, time point 0 hr, read-out: ZGN-201 Conc. in Rat Plasma, individual animals): 1 ng/mL
- concentration at 0.083 hr ([3]; male, Sprague-Dawley, rat, plasma, other: intraduodenal, 30 mg/kg, male rats 1, 3, 4, 5, time point 0.083 hr, read-out: ZGN-201 Conc. in Rat Plasma, individual animals): 31400 ng/mL
- concentration at 0.25 hr ([3]; male, Sprague-Dawley, rat, plasma, other: intraduodenal, 30 mg/kg, male rats 1, 3, 4, 5, time point 0.25 hr, read-out: ZGN-201 Conc. in Rat Plasma, individual animals): 7710 ng/mL
- concentration at 8 hr ([3]; male, Sprague-Dawley, rat, plasma, other: intraduodenal, 30 mg/kg, male rats 1, 3, 4, 5, time point 8 hr, read-out: ZGN-201 Conc. in Rat Plasma, individual animals): 11.9 ng/mL
- concentration at 0.083 hr ([3]; male, Sprague-Dawley, rat, plasma, other: intraduodenal, 30 mg/kg, male rats, time point 0.083 hr, read-out: ZGN-201 Conc. in Rat Plasma, Mean): 25100 ng/mL
- concentration at 0.25 hr ([3]; male, Sprague-Dawley, rat, plasma, other: intraduodenal, 30 mg/kg, male rats, time point 0.25 hr, read-out: ZGN-201 Conc. in Rat Plasma, Mean): 9200 ng/mL
- concentration at 0.5 hr ([3]; male, Sprague-Dawley, rat, plasma, other: intraduodenal, 30 mg/kg, male rats, time point 0.5 hr, read-out: ZGN-201 Conc. in Rat Plasma, Mean): 1730 ng/mL
- concentration at 2 hr ([3]; male, Sprague-Dawley, rat, plasma, other: intraduodenal, 30 mg/kg, male rats, time point 2 hr, read-out: ZGN-201 Conc. in Rat Plasma, Mean): 506 ng/mL
- concentration at 8 hr ([3]; male, Sprague-Dawley, rat, plasma, other: intraduodenal, 30 mg/kg, male rats, time point 8 hr, read-out: ZGN-201 Conc. in Rat Plasma, Mean): 20 ng/mL
- concentration at 5 min ([3]; male, Sprague-Dawley, rat, plasma, other: intraduodenal, 30 mg/kg, rats, 5 min. from administration (time point 0.083), read-out: amount of absorption by the small intestine): 3000 ng/mL
- leptin levels [4]: reduced
- weight loss ([5]; 0.3 mg/kg/day oral gavage): lost significant amounts of weight
- weight loss ([5]; 1.0 mg/kg/day oral gavage): losing a greater amount of weight
- loss of lean body mass (NMR) ([5]; 0.3 or 1.0 mg/kg/day oral gavage): without resulting in substantial loss of lean body mass
